Laboratory results taken from patent US20260242478A1, “ANTIBODIES FOR TARGETING PSMA AND CD28 AND USES THEREOF” (Janux Therapeutics, Inc., priority 2023, published 2026).

Assays:
anti-CD28 scFv = assay: Panning ELISA of clonal phage, anti-CD28 scFv, with or without CD28 soluble protein (Peptide-9 library); type: binding; details: background (no anti-CD28 scFv)
Protocol: Clonal phage were harvested as crude supernatants and screened via standard enzyme linked immunosorbent assays (ELISAs). […] Prior to the addition of clonal phage, wells were incubated with blocking buffer and CD28 soluble protein or blocking buffer alone. Without washing or aspirating, clonal phage supernatants were then added to the wells and incubated for a short time. Wells were then washed followed by detection of bound phage using a horse radish peroxidase conjugated anti-M13 antibody. Clonal phage of interest were then sent for sequence analysis.

PSMA Fab = assay: Phage binding ELISA, PSMA Fab, with or without PSMA antigen (peptide-179 and peptide-180 libraries); details: peptide-180 library clonal phage; background (no Fab)
PSMA Fab, sequence (as listed by the source): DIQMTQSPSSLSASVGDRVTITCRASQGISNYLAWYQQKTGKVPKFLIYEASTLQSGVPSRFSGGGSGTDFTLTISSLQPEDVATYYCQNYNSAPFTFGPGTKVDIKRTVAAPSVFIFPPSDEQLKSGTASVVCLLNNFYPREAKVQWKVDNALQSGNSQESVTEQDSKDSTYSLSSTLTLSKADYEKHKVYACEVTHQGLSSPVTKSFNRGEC
PSMA Fab, sequence (as listed by the source): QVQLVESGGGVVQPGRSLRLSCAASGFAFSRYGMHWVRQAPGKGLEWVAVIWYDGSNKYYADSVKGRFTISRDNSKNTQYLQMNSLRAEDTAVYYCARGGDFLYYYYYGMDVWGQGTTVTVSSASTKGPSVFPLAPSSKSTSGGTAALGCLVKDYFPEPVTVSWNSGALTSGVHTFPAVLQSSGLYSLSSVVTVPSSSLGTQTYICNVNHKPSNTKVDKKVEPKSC
Protocol: (§1) Once the phage optimization libraries were completed, phage libraries were bio-panned using PSMA Fab loaded beads. Multiple rounds of panning were performed where bacteriophage was allowed to bind to PSMA Fab loaded beads. washed. eluted, and amplified. After panning, phage infected bacteria were plated out and colonies picked into 96 well blocks. Clonal phage was then amplified and separated from bacterial cells via centrifugation. Phage containing supemnatants were tested in binding ELISAs against PSMA Fab coated plates in the presence or absence of saturating concentrations of PSMA antigen. Phage able to bind PSMA Fab were selected for sequence analysis if the binding signal was reduced in the presence of PSMA.
Clonal phage were harvested as crude supernatants and screened via standard ELISAs. Briefly, biotinylated PSMA Fab was captured on neutravidin coated plates. Prior to the addition of clonal phage. wells were incubated with blocking buffer and PSMA antigen or blocking buffer alone. Without washing or aspirating, clonal phage supernatants were then added to the wells and incubated for a short time. Wells were then washed followed by detection of bound phage using a horse radish conjugated anti-M13 antibody. Clonal phage of interest were then sent for sequence analysis.
as §1, with “beads, washed,” for “beads. washed.”, “supernatants” for “supemnatants”

anti-CD28 scFv, sequence (as listed by the source): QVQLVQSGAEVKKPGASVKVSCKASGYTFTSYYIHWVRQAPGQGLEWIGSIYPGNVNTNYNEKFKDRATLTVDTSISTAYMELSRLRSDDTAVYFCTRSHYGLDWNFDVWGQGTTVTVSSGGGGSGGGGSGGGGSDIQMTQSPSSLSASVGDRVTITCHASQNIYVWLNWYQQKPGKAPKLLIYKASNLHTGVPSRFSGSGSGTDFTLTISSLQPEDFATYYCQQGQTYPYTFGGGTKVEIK

Substance | Background signal (anti-CD28 scFv; Peptide-9 library) | Phage binding ELISA Background signal (PSMA Fab) | other results
Phage-382 (ITWCPTSLWNRCLV) | – | – | Background signal (anti-CD28 scFv): 0.077
Phage-383 (LAGCQRDLATVCVI) | – | – | Background signal (anti-CD28 scFv): 0.068
Phage-384 (IMWCPTSLWNRCVT) | – | – | Background signal (anti-CD28 scFv): 0.104
Phage-386 (NHWCPTTLWNRCVA) | – | – | Background signal (anti-CD28 scFv): 0.293
Phage-387 (MDWCPRHLWLECFN) | – | – | Background signal (anti-CD28 scFv): 0.064
Phage-388 (MDWCPRFMWNFCFF) | – | – | Background signal (anti-CD28 scFv): 2.200
Phage-391 (MDWCPFDMWADCFF) | – | – | Background signal (anti-CD28 scFv): 0.063
Phage-393 (MDWCPRDMWFECFN) | – | – | Background signal (anti-CD28 scFv): 0.069
Phage-394 (MDWCPRYMWSDCFF) | – | – | Background signal (anti-CD28 scFv): 0.082
Phage-395 (MDWCPKDMWAECFN) | – | – | Background signal (anti-CD28 scFv): 0.083
Phage-396 (TDWCPRDMWYLCFN) | – | – | Background signal (anti-CD28 scFv): 0.082
Phage-397 (MDWCPRAMWDYCFY) | – | – | Background signal (anti-CD28 scFv): 0.123
Phage-398 (MDWCPRNMWNECFF) | – | – | Background signal (anti-CD28 scFv): 0.095
Phage-399 (MDWCPRSMWDSCFN) | – | – | Background signal (anti-CD28 scFv): 0.332
Phage-400 (MHWCPTYMWSECFA) | 0.070 | – | –
Phage-401 (MDWCPLDMWVLCFA) | 0.085 | – | –
Phage-402 (MDWCPRHMWHECFH) | 0.067 | – | –
Phage-403 (MSWCPWDMWNECFA) | 0.069 | – | –
Phage-404 (MDWCPRDMWTSCFN) | 0,100 | – | –
Phage-405 (MDWCPMSMWAFCFD) | 0.102 | – | –
Phage-406 (MNWCPIDMWTECFN) | 0.245 | – | –
Phage-407 (MNWCPIHMWNQCFA) | 0.085 | – | –
Phage-408 (MFWCPKDMWAECFA) | 0.099 | – | –
Phage-409 (LHWCPITMWTYCYY) | 0.229 | – | –

Substance | Background signal (anti-CD28 scFv; Peptide-9 library) | Phage binding ELISA Background signal (PSMA Fab) | other results
Phage-410 (IDWCPRYMWHECFF) | 0.098 | – | –
Phage-411 (MSWCPRFMWHECFN) | 0.081 | – | –
Phage-412 (QHWCPRDMWNDCYA) | 0.066 | – | –
Phage-413 (MDWCPSDMWSNCFN) | 0.070 | – | –
Phage-414 (LYWCPRDMWAYCYS) | 0.068 | – | –
Phage-415 (MDWCPMYMWHKCFH) | 0.099 | – | –
Phage-417 (IYWCPTAMWNRCSA) | 0.086 | – | –
Phage-418 (MYWCPKYMWSECFA) | 0.072 | – | –
Phage-419 (VDWCPAHMWNECYN) | 0.208 | – | –
Phage-420 (MFWCPSTMWNRCFD) | 0.063 | – | –
Phage-422 (MYWCPINMWDYCYA) | 0.122 | – | –
Phage-423 (INLCPTPMWNRCWL) | 0.119 | – | –
Phage-424 (ITQCPSTMWNRCSV) | 0.067 | – | –
Phage-425 (MDLCPTAMWNRCFY) | 0.063 | – | –
Phage-426 (MFLCPSAMWNRCFY) | 0.069 | – | –
Phage-427 (VILCPTTMWNRCFH) | 0,100 | – | –
Phage-428 (MNWCPSTMWNRCLT) | 0.067 | – | –
Phage-430 (IHLCHWVPWIKCSH) | 2.516 | – | –
Phage-431 (MAWCPADQWHECFN) | 0.076 | – | –
Phage-432 (IDWCPIIQGLPCFA) | 0.058 | – | –
Phage-433 (MAWCPWAQFDECLA) | 0.073 | – | –
Phage-434 (IVWCPTTQWNRCAT) | 0.113 | – | –
Phage-435 (MDWCPRDRWVDCYA) | 0.157 | – | –
Phage-436 (MDWCPRDRWADCFN) | 0.063 | – | –

Substance | Background signal (anti-CD28 scFv; Peptide-9 library) | Phage binding ELISA Background signal (PSMA Fab) | other results
Phage-437 (MDWCPVDRWADCFN) | 0.071 | – | –
Phage-438 (MDWCPMSRWAFCFD) | 0.071 | – | –
Phage-439 (MDWCPRDRWDVCFA) | 0.073 | – | –
Phage-440 (MDWCPRDRWVDCFN) | 0.106 | – | –
Phage-441 (MDWCPRDRWDDCFF) | 0.114 | – | –
Phage-442 (IYWCPIDRWNDCYN) | 0.177 | – | –
Phage-443 (MDWCPMTRWNDCYF) | 0.081 | – | –
Phage-444 (VNQCTRYRWAECLN) | 0.465 | – | –
Phage-445 (MDWCPRARWHDCFF) | 0.097 | – | –
Phage-446 (MDWCPRDRWDDCFN) | 0.069 | – | –
Phage-448 (MAWCPWASFDECLA) | 0.104 | – | –
Phage-449 (MVDCPLISFDECLA) | 0.246 | – | –
Phage-450 (EDWCPTDVWPYCFS) | 0.100 | – | –
Phage-451 (MDWCPRFWWHECYA) | 0.246 | – | –
Phage-452 (MDWCPRDWWHMCFN) | 0.100 | – | –
Phage-453 (MDWCPSDYWYVCFA) | 0.065 | – | –
Phage-2787 (LWKSCTPEWMCAEW) | – | 0.0888 | –
Phage-2788 (SVKWCTPSWMCTEW) | – | 0.0817 | –
Phage-2789 (VGKWCTPEWMCSGF) | – | 0.058 | –
Phage-2790 (VMKWCTPSWMCAEA) | – | 0.067 | –
Phage-2791 (WEKWCTPSWMCSGI) | – | 0.0564 | –
Phage-2792 (TQHWCTPIWMCEGL) | – | 0.0865 | –
Phage-2793 (VTNWCTPPWMCEML) | – | 0.0676 | –
Phage-2794 (TEKWCIPQWMCVRT) | – | 0.056 | –

Substance | Background signal (anti-CD28 scFv; Peptide-9 library) | Phage binding ELISA Background signal (PSMA Fab) | other results
Phage-2795 (FEKWCTPQWMCNSM) | – | 0.0569 | –
Phage-2796 (LNNWCTPAWMCVGY) | – | 0.0697 | –
Phage-2797 (ERIWCTPKWMCETF) | – | 0.0696 | –
Phage-2798 (HFKWCIPPWMCLEI) | – | 0.0798 | –
Phage-2799 (ESKWCVPTWMCAEN) | – | 0.0516 | –
Phage-2800 (DYKWCTPPWMCDSR) | – | 0.0795 | –
Phage-2801 (SDNWCKPEWMCVGH) | – | 0.0738 | –
Phage-2802 (TPKWCTPAWMCVVS) | – | 0.0829 | –
Phage-2803 (VKHVCMPEWMCYWS) | – | 0.0652 | –
Phage-2804 (EGKWCTPTWMCQGF) | – | 0.0669 | –
Phage-2805 (MMHWCTPPWMCEFS) | – | 0.0597 | –
Phage-2806 (GATWCTPTWMCTGF) | – | 0.0609 | –
Phage-2807 (WENWCIPQWMCGTA) | – | 0.1629 | –
Phage-2808 (MEKWCTPRWMCVGM) | – | 0.0767 | –
Phage-2809 (VTKLCIPEWMCVIQ) | – | 0.0543 | –
Phage-2810 (MDIWCKPRWMCEEY) | – | 0.0644 | –
Phage-2811 (VPKWCTPSWMCEFT) | – | 0.0593 | –
Phage-2812 (VGPWCIPDWMCDVV) | – | 0.0572 | –
Phage-2813 (FSKLCTPPWMCSVS) | – | 0.0586 | –
Phage-2814 (PMKWCTPPWMCSYS) | – | 0.0793 | –
Phage-2815 (IDKWCVPAWMCSPA) | – | 0.0608 | –
Phage-2816 (GDKWCKPSWMCDFF) | – | 0.0602 | –
Phage-2817 (EAKWCTPPWMCSLV) | – | 0.0615 | –
Phage-2818 (SVHMCKPPWMCQSM) | – | 0.0587 | –
